Results published in patent US20250215030A1, “STAT MODULATORS AND USES THEREOF” (Recludix Pharma, Inc., priority 2022, published 2025).
Each block holds one molecule with its values, some of them ahead of it.

How the values were obtained:
[1] = target: T1, pSTAT6 (pY641-STAT6) (Homo sapiens, UniProt P42226); test: MSD-pSTAT-PBMC Assay (pSTAT6, IL-4 stimulated); assay type: cell-based; conditions: compound 3 hrs, then 1 ng/mL IL-4 for 10 min
T1 construct: host or cells: cryopreserved PBMC
T1 sequence (P42226 1-847): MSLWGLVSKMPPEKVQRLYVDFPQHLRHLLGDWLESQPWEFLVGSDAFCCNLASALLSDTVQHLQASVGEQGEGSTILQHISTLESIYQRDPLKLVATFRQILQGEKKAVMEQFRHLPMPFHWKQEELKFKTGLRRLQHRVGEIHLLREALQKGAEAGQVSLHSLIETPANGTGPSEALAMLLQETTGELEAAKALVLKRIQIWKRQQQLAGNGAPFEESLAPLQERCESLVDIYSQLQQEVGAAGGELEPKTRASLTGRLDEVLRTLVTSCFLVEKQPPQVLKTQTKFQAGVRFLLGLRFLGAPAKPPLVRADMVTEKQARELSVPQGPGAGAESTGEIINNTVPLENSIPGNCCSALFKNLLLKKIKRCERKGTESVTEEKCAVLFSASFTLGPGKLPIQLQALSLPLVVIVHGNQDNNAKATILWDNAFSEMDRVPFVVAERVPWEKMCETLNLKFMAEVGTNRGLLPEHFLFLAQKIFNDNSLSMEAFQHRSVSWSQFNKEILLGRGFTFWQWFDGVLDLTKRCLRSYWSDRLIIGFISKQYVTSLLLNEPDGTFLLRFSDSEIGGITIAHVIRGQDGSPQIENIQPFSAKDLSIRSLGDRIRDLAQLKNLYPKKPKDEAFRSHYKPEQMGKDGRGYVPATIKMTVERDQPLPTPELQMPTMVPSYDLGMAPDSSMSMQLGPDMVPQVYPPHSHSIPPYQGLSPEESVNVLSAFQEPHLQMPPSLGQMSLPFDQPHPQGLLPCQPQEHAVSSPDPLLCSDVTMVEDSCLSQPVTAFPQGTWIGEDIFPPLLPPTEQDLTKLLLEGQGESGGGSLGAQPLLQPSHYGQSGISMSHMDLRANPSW
Summary of the method: (§1)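 Phospho-STAT levels captured on anti-STAT3 or anti-STAT6 plates and detected with anti-pY705 or anti-pY641 antibodies (MSD read-out). Cryopreserved human PBMCs received compound for 3 h before a 10 min pulse of IL-6 (10 ng/mL, STAT3) or IL-4 (1 ng/mL, STAT6). IC50 fitted after unstimulated-background subtraction and DMSO normalization.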

[2] = target: T2, pSTAT3 (pY705-STAT3) (Homo sapiens, UniProt P40763); test: MSD-pSTAT-PBMC Assay (pSTAT3, IL-6 stimulated); assay type: cell-based; conditions: PBMC, compound 3 hrs, then 10 ng/mL IL-6 for 10 min; MSD pY705-STAT3; read-out: pSTAT3
T2 construct: host or cells: cryopreserved PBMC
Summary of the method: as §1

T2 sequence (P40763 whole entry): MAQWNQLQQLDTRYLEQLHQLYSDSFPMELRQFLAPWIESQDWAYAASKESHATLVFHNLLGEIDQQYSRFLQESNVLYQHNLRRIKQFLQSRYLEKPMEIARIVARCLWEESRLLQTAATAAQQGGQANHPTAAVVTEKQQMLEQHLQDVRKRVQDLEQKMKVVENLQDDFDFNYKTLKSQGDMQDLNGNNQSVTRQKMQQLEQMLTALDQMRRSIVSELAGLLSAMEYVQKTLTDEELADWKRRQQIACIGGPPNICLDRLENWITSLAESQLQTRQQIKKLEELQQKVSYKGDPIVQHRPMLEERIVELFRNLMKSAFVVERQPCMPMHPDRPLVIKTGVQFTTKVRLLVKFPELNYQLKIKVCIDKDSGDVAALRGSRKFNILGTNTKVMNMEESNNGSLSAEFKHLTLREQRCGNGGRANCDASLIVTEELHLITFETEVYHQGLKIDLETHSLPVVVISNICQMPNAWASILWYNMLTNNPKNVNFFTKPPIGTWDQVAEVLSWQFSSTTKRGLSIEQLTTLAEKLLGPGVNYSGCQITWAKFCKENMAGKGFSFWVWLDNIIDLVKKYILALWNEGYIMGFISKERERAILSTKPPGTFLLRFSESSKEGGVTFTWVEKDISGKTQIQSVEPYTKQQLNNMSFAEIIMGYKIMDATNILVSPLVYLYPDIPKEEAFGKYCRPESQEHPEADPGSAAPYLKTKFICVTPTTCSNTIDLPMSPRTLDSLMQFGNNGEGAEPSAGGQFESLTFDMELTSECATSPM

Compound: CC(C)(C)C(=O)OCOP(=O)(OCOC(=O)C(C)(C)C)C(F)(F)c1ccc2sc(C(=O)N[C@H]3C[C@@H]4C[C@@H]4C[C@H]4CC[C@@H](C(=O)N5CC(C6CCOCC6)C5)N4C3=O)cc2c1 [Compound 205, (((difluoro(2-(((3S,6S,7aS, 8aR,9aR)-5-oxo-3-(3-(tetrahydro-2H-pyran-4-yl)azetidine-1-carbonyl)decahydro-1H-cyclopropa[d]pyrrolo[1,2-a]azocin-6-yl)carbamoyl)benzo[b]thiophen-5-yl)methyl)phosphoryl)bis(oxy)) bis(methylene) bis(2,2-dimethyl-propanoate)]
IC50 [1]: 100 to 1000 nM | IC50 [2]: < 100 nM

Compound: CC(C)(C)C(=O)OCOP(=O)(OCOC(=O)C(C)(C)C)C(F)(F)c1ccc2sc(C(=O)N[C@H]3C[C@@H]4C[C@@H]4C[C@H]4CC[C@@H](C(=O)N5CC(c6ccccn6)C5)N4C3=O)cc2c1 [Compound 206, (((difluoro(2-(((3S,6S,7aS, 8aR,9aR)-5-oxo-3-(3-(pyridin-2-yl)azetidine-1-carbonyl)decahydro-1H-cyclopropa[d]pyrrolo[1,2-a]azocin-6-yl)carbamoyl)benzo[b]thiophen-5-yl)methyl)phosphoryl)bis(oxy)) bis(methylene) bis(2,2-dimethyl-propanoate)]
IC50 [1]: 100 to 1000 nM | IC50 [2]: < 100 nM

Compound: CC(C)(C)C(=O)OCOP(=O)(OCOC(=O)C(C)(C)C)C(F)(F)c1ccc2sc(C(=O)N[C@H]3C[C@@H]4C[C@@H]4C[C@H]4CC[C@@H](C(=O)N5CC(n6ccnc6)C5)N4C3=O)cc2c1 [Compound 207]
IC50 [1]: > 3000 nM | IC50 [2]: < 100 nM

Compound: CC(=O)N1C[C@H](NC(=O)[C@@H]2CC[C@@H]3C[C@H]4C[C@H]4C[C@H](NC(=O)c4cc5cc(C(F)(F)P(=O)(OCOC(=O)C(C)(C)C)OCOC(=O)C(C)(C)C)ccc5s4)C(=O)N32)[C@@H](O)C1 [Compound 208, ((((2-(((3S,6S,7aS, 8aR,9aR)-3-(((3S,4S)-1-acetyl-4-hydroxy-pyrrolidin-3-yl)carbamoyl) 5-oxodecahydro-1H-cyclopropa[d]pyrrolo[1,2-a]azocin-6-yl)carbamoyl)benzo[b]thiophen-5-yl)difluoromethyl)phosphoryl)bis(oxy)) bis(methylene) bis(2,2-dimethyl-propanoate)]
IC50 [1]: 1000 to 3000 nM | IC50 [2]: < 100 nM

Compound: CC(C)(C)C(=O)OCOP(=O)(OCOC(=O)C(C)(C)C)C(F)(F)c1ccc2sc(C(=O)N[C@H]3C[C@H]4C[C@H]4C[C@H]4CC[C@@H](C(=O)N5CC(c6ccccn6)C5)N4C3=O)cc2c1 [Compound 209, (((difluoro(2-(((3S,6S,7aR, 8aS,9aR)-5-oxo-3-(3-(pyridin-2-yl)azetidine-1-carbonyl)decahydro-1H-cyclopropa[d]pyrrolo[1,2-a]azocin-6-yl)carbamoyl)benzo[b]thiophen-5-yl)methyl)phosphoryl)bis(oxy)) bis(methylene) bis(2,2-dimethyl-propanoate)]
IC50 [1]: 100 to 1000 nM | IC50 [2]: < 100 nM

Results, then the molecule that gave them:

IC50 [1]: 100 to 1000 nM | IC50 [2]: < 100 nM
Compound: CC(C)(C)C(=O)OCOP(=O)(OCOC(=O)C(C)(C)C)C(F)(F)c1ccc2sc(C(=O)N[C@H]3C[C@H]4C[C@H]4C[C@H]4CC[C@@H](C(=O)N5CC(c6c[nH]cn6)C5)N4C3=O)cc2c1 [Compound 203, ((((2-(((3S,6S,7aR, 8aS,9aR)-3-(3-(1H-imidazol-4-yl)azetidine-1-carbonyl)-5-oxodecahydro-1H-cyclopropa [d]pyrrolo[1,2-a]azocin-6-yl)carbamoyl)benzo[b]thiophen-5-yl)difluoromethyl)phosphoryl)bis(oxy)) bis(methylene) bis(2,2-dimethyl-propanoate)]

IC50 [1]: 100 to 1000 nM | IC50 [2]: < 100 nM
Compound: CC(C)(C)C(=O)OCOP(=O)(OCOC(=O)C(C)(C)C)C(F)(F)c1ccc2sc(C(=O)N[C@H]3C[C@@H]4C[C@@H]4C[C@H]4CC[C@@H](C(=O)N5CC(N6CCOCC6)C5)N4C3=O)cc2c1 [Compound 204, (((difluoro(2-(((3S,6S,7aS, 8aR,9aR)-3-(3-morpholino-azetidine-1-carbonyl)-5-oxodecahydro-1H-cyclopropa[d]pyrrolo[1,2-a]azocin-6-yl)carbamoyl)benzo[b]thiophen-5-yl)methyl)phosphoryl)bis(oxy)) bis(methylene) bis(2,2-dimethyl-propanoate)]
